Measured values: patent US6344479B1, “Method of preventing retinopathy of prematurity in a neonate” (Farmacon-Il, LLC, priority 2001, dated 2002)

Columns and labels:
prematurely born infants = assay: Clinical study: development of retinopathy of prematurity (ROP) in premature neonates given NSAID; type: in vivo, human; conditions: for Max ROP grades: data as means per treatment group; for ROP: No (number of neonates without ROP) / ROP: Yes (number of neonates with any ROP): data as numbers of neonates per treatment group, i.v. postnatal treatment, gestation no more than 31 weeks
Description: A clinical study was carried out at the Neonatology Unit of University Hospital, Antwerp, Belgium.
Patients and Methods: 229 prematurely born infants were included in the study. All infants were born after a gestation period of no more than 31 weeks and all infants survived for a period of at least 21 days. Prospective serial retinal observation were performed by pediatric ophthalmologist starting at a postmenstrual age of 33 weeks. Evaluation for ROP in both eyes included staging and extension of disease, zone of involvement, number of clock hours, and the presence of any additional disease.

mouse = conditions: administered concurrently with the injury phase; normal growth not affected; cited from earlier work

Compound	Max ROP grades (prematurely born infants) [units]	ROP: No (number of neonates without ROP) (prematurely born infants)	ROP: Yes (number of neonates with any ROP) (prematurely born infants)	Risk of developing ROP (in words) (prematurely born infants; postnatal administration, independently of other studied neonatal risk factors)	Effect on oxygen-induced retinopathy (in words) (mouse)
CC(C)Cc1ccc(C(C)C(=O)O)cc1 (centres unmarked) [Ibuprofen, ibuprofen lysinate]	0.26	26	5	significantly reduced	
COc1ccc2c(c1)c(CC(=O)O)c(C)n2C(=O)c1ccc(Cl)cc1 [Indomethacin, indomethacin]	1	32	30		improved oxygen-induced retinopathy
